Drawing on US20230014445A1, “ALLOSTERIC CHROMENONE INHIBITORS OF PHOSPHOINOSITIDE 3-KINASE (PI3K) FOR THE TREATMENT OF DISEASE” (Petra Pharma Corporation, priority 2021, published 2023), this text covers IC50 for 18 compounds.

Assay [1] has as its target T1, human full length PIK3KA Wild-type (p110α/p85α complex) (Homo sapiens, UniProt P42336).
T1 construct: Recombinant, catalytically active human full length PIK3KA Wild-type and H1047R mutant were purchased; 6xHis (N); purchased EMD Millipore Sigma 14-602M
In words: PI3K-Alpha Kinase (PIK3CA) biochemical activity, wild-type (ADP-Glo). Particulars: 20 uM ATP. The source says: (§1) PI3K-Alpha Kinase (PIK3CA) Activity, Wild-Type and H1047R Mutant and Determining IC50 Values for Inhibitors
(§2) Recombinant, catalytically active human full length PIK3KA Wild-type and H1047R mutant were purchased as 1:1 complex of N-terminal 6×his tagged p110α (catalytic) and untagged p85α, (regulatory subunit) from EMD Millipore Sigma (cat. no. 14-602M and 14-792M, respectively). PIP2diC8 (Avanti Polar Lipids Inc., cat. no. 850185) or Soy PI (Avanti Polar Lipids Inc., cat. No. 840044P) was used as lipid substrate. PIP2diC8 or PI lyophilized powder was dissolved in milliQ water to a concentration of 1 mM just before use. 10 mM stock compounds in DMSO were serially diluted 1:3 to generate a 10-point curve and plated using an acoustic liquid handler system (Echo 550 series instrument, Labcyte). A 10× intermediate compound plate (200 uM starting compound concentration and 10% DMSO) was prepared before starting the reaction. A typical reaction mixture (50 uL) comprised 40 mM HEPES buffer, pH 7.4, 25 mM MgCl2, 0.01% v/v triton-X-100, 1% v/v DMSO, 20 mM NaCl, 1-5 nM WT or H1047R PI3K protein, 20 uM ATP, and 50 uM PIP2diC8 or Soy PI. 1% DMSO buffer alone without test compound was employed as MAX control (full activity in the absence of any inhibitor), and no enzyme control was used to determine the level of background Adenosine 5′-diphosphate (ADP) (MIN control). First, Wild-type (WT) and H1047R mutant protein in kinase buffer with all components except ATP were incubated with or without compound at 27° C. for 1 h. After the pre-incubation, the reaction was initiated by the addition of […] (20 uM final concentration). The reaction was allowed to proceed until about 10% conversion of ATP (2 uM ADP) at 27° C. After that time, 5 uL of reaction was mixed with 5 uL of ADP-Kinase Glo Reagent (ADP-Glo Kinase assay kit, Promega cat. no. V9102) supplemented with MgCl2 10 mM to stop the reaction and deplete the remaining ATP for 40 min at room temperature. Then, 10 uL of Kinase Detection Reagent (ADP-Glo Kinase assay kit, Promega cat. no. V9102) was added to simultaneously convert ADP to ATP and allow the newly synthesized ATP to be measured using a luciferase/luciferin reaction. After 30 min at room temperature the light generated was measured using a luminometer (EnVision plate reader, Perkin Elmer). Process data through Genedata-Screener tool. Relative IC50 values are determined using luminescence units by calculating percent inhibition with respect to on-plate “MIN” and “MAX” controls. Data was analyzed using a 4-parameter nonlinear logistic equation (four-parameter logistic concentration-response curve):
(§3) Y=bot+[(top−bot)/1+(x/IC50)slope]
(§4) where Y=% inhibition, X=concentration yielding y % inhibition, Bottom=minimum value of y attained by curve, Top=maximum value of y attained by curve and Slope=steepness of curve at IC50.
(§5) % Inh=[(median Max−x/median Max−median Min)]·100
(§6) IC50: concentration of compound that reduces a given response (ligand binding, enzyme response) by 50%. IC50 relative: concentration giving half the compound's maximum response.
(§7) For IC50 values shown in Table A, “A” means IC50<0.5 μM; “B” means IC50 ranging between 0.5 μM and 1.0 μM; “C” means IC50 ranging between 1 μM and 5 μM; “D” means IC50 ranging between 5 μM and 10 μM; “E” means IC50>10 μM.
Background: ADP-Glo first removes unused ATP, then detects ADP through luciferase.

The target in assay [2] is T2, human full length PIK3KA H1047R mutant (p110α/p85α complex) (Homo sapiens, UniProt P42336, H1047R).
T2 construct: Recombinant, catalytically active human full length PIK3KA Wild-type and H1047R mutant were purchased; 6xHis (N); purchased EMD Millipore Sigma 14-792M
Description: PI3K-Alpha Kinase (PIK3CA) biochemical activity, H1047R mutant (ADP-Glo). As to conditions: 20 uM ATP.
Description: as §1, §2, §3, §4, §5, §6, §7

T2 sequence (P42336 whole entry H1047R): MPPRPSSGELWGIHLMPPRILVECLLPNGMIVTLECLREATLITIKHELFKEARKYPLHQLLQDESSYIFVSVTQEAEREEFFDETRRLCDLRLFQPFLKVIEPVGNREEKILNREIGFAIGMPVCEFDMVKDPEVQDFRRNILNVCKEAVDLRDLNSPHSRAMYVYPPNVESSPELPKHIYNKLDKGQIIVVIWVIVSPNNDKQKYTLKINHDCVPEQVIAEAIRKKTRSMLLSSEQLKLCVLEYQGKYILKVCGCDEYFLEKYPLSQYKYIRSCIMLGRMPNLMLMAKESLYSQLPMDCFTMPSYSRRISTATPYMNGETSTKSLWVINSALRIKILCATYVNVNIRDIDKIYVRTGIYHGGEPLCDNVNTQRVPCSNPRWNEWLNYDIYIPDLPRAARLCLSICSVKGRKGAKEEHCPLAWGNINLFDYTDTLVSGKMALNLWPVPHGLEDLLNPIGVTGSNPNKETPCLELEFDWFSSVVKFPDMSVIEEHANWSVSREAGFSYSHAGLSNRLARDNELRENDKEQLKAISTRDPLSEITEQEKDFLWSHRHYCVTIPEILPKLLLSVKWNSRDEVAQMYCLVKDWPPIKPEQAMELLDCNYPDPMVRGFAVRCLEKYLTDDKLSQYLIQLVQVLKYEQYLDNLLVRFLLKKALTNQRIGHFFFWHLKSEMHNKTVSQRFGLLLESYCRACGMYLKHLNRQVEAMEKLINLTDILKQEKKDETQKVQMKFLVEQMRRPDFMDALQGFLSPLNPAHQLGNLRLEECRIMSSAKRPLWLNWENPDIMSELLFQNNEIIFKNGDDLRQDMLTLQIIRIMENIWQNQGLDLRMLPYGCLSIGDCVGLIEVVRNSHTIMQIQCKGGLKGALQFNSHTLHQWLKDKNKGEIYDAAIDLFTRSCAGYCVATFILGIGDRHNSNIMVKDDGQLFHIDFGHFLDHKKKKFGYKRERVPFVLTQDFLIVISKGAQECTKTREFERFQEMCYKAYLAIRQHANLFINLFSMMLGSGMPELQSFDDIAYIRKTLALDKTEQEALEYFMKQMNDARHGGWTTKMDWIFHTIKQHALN
T2 sequence (P27986 whole entry partner): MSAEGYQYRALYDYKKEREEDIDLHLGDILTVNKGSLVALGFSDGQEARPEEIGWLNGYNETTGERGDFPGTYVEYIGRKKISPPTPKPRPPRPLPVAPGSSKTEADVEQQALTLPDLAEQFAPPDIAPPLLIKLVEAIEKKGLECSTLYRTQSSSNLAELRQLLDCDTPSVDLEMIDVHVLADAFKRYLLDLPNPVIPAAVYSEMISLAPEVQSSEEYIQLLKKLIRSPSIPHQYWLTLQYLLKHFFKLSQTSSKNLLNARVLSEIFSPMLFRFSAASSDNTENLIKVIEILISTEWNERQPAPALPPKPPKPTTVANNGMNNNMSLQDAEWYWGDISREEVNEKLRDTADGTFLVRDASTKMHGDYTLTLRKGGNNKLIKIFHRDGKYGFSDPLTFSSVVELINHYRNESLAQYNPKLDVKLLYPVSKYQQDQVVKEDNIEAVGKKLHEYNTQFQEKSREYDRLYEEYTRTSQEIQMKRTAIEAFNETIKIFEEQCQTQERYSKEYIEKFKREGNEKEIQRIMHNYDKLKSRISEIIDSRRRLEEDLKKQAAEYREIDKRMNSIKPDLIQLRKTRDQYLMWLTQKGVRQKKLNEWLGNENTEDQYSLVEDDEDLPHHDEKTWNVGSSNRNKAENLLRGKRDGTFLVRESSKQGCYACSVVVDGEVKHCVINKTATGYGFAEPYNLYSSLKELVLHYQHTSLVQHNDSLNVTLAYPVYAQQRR

Regarding `Cc1cc(C(C)Nc2ccccc2C(=O)O)c2oc(-c3cnn(-c4ccc(C#N)cc4)c3)cc(=O)c2c1` (single isomer, unassigned) [Example 64, 2-[1-2-[1-(4-Cyanophenyl)pyrazol-4-yl]-6-methyl-4-oxo-chromen-8-yl]ethylamino]benzoic acid, Isomer 2,2,2,2-trifluoroacetic acid], the concentration for half-maximal inhibition (IC50) (in general, the point on the concentration scale where inhibition reaches its midpoint) in assay [1] (Soy PI lipid substrate) is 1000 to 5000 nM; in assay [2] (Soy PI lipid substrate) it was less than 500 nM.

On to `COc1ncc(-c2cc(=O)c3cc(C)cc(C(C)Nc4ccccc4C(=O)O)c3o2)cn1` (single isomer, unassigned) [Example 4, 2-[1-[2-(2-Methoxypyrimidin-5-yl)-6-methyl-4-oxo-chromen-8-yl]ethylamino]benzoic acid], for which the IC50 in assay [1] (PIP2diC8 lipid substrate) and in assay [2] (PIP2diC8 lipid substrate) was less than 500 nM each time.

Regarding `Cc1c(-c2ccccn2)oc2c(C(C)Nc3ccccc3C(=O)O)cc(F)cc2c1=O` (single isomer, unassigned) [Example 68, 2-[1-[6-Fluoro-3-methyl-4-oxo-2-(2-pyridyl)chromen-8-yl]ethylamino]benzoic acid, Isomer 1,2,2,2-trifluoroacetic acid], the results for the IC50 in assay [1] (Soy PI lipid substrate) and in assay [2] (Soy PI lipid substrate) were 5000 to 10000 nM and less than 500 nM, respectively.

As to `COc1ccc(-c2cc(=O)c3cc(C)cc(C(C)Nc4ccccc4C(=O)O)c3o2)cn1` (single isomer, unassigned; isomer 2) [Example 20, 2-[1-[2-(6-Methoxy-3-pyridyl)-6-methyl-4-oxo-chromen-8-yl]ethylamino]benzoic acid, Isomer 2], the IC50 is 1000 to 5000 nM in assay [1] (Soy PI lipid substrate) and less than 500 nM in assay [2] (Soy PI lipid substrate).

In the case of `Cc1cc(C(C)Nc2ccccc2C(=O)O)c2oc(-c3ccc(C(F)(F)F)nc3)cc(=O)c2c1` (stereo not drawn) [Example 8, 2-[1-[6-Methyl-4-oxo-2-[6-(trifluoromethyl)-3-pyridyl]chromen-8-yl]ethylamino]benzoic acid 2,2,2-trifluoroacetic acid], the IC50 in assay [1] (Soy PI lipid substrate) is 5000 to 10000 nM; in assay [2] (Soy PI lipid substrate) it was less than 500 nM.

As for `Cc1cc(C(C)Nc2ccccc2C(=O)O)c2oc(-c3ccccn3)cc(=O)c2c1` (single isomer, unassigned; isomer 2) [Example 18, 2-[1-[6-Methyl-4-oxo-2-(2-pyridyl)chromen-8-yl]ethylamino]benzoic acid, Isomer 2], the IC50 in assay [1] (PIP2diC8 lipid substrate) and in assay [2] (PIP2diC8 lipid substrate) was greater than 10000 nM in each case.

For `COc1ccnc(-c2cc(=O)c3cc(C)cc(C(C)Nc4ccccc4C(=O)O)c3o2)c1` (single isomer, unassigned) [Example 43, 2-[1-[2-(4-Methoxy-2-pyridyl)-6-methyl-4-oxo-chromen-8-yl]ethylamino]benzoic acid, Isomer 2,2,2,2-trifluoroacetic acid], the IC50 in assay [1] (Soy PI lipid substrate) fell in the range of 5000 to 10000 nM; in assay [2] (Soy PI lipid substrate), 500 to 1000 nM.

As for `Cc1cc(C(C)Nc2ccccc2C(=O)O)c2oc(-c3ccc(F)cn3)cc(=O)c2c1` (stereo not drawn) [Example 23, 2-[1-[2-(5-Fluoro-2-pyridyl)-6-methyl-4-oxo-chromen-8-yl]ethylamino]benzoic acid 2,2,2-trifluoroacetic acid], the IC50 was 5000 to 10000 nM in assay [1] (Soy PI lipid substrate) and less than 500 nM in assay [2] (Soy PI lipid substrate).

In the case of `CC(Nc1ccccc1C(=O)O)c1cc(C(F)(F)F)cc2c(=O)cc(-c3cnn(-c4ccc(C#N)cc4)c3)oc12` (single isomer, unassigned; isomer 1) [Example 99, 2-[1-2-[1-(4-Cyanophenyl)pyrazol-4-yl]-4-oxo-6-(trifluoromethyl)chromen-8-yl]ethylamino]benzoic acid, Isomer 1], the IC50 in assay [1] (Soy PI lipid substrate) is 1000 to 5000 nM; in assay [2] (Soy PI lipid substrate), 500 to 1000 nM.

As for `COc1cccc(-n2cc(-c3cc(=O)c4cc(C)cc(C(C)Nc5ccccc5C(=O)O)c4o3)cn2)c1` (single isomer, unassigned) [Example 53, 2-[1-[2-[1-(3-Methoxyphenyl)pyrazol-4-yl]-6-methyl-4-oxo-chromen-8-yl]ethylamino]benzoic acid, Isomer 2,2,2,2-trifluoroacetic acid], the IC50 was 1000 to 5000 nM in assay [1] (Soy PI lipid substrate) and less than 500 nM in assay [2] (Soy PI lipid substrate).

Regarding `Cc1cc(C(C)Nc2ccccc2C(=O)O)c2oc(-c3cnn(-c4cccnc4)c3)cc(=O)c2c1` (single isomer, unassigned; isomer 2) [Example 50, 2-[1-[6-Methyl-4-oxo-2-[1-(3-pyridyl)pyrazol-4-yl]chromen-8-yl]ethylamino]benzoic acid, Isomer 2], the IC50 in assay [1] (Soy PI lipid substrate) was 1000 to 5000 nM; in assay [2] (Soy PI lipid substrate), less than 500 nM.

Consider `Cc1cc(C(C)Nc2ccccc2C(=O)O)c2oc(-c3cnn(-c4cccc(C#N)c4)c3)cc(=O)c2c1` (single isomer, unassigned) [Example 54, 2-[1-[2-[1-(3-Cyanophenyl)pyrazol-4-yl]-6-methyl-4-oxo-chromen-8-yl]ethylamino]benzoic acid, Isomer 2,2,2,2-trifluoroacetic acid], for which the results for the concentration for half-maximal inhibition (IC50) in assay [1] (Soy PI lipid substrate) and in assay [2] (Soy PI lipid substrate) were 1000 to 5000 nM and less than 500 nM, respectively.

For `Cc1cc(C(C)Nc2ccc(Cl)nc2C(=O)O)c2oc(-c3cnccn3)cc(=O)c2c1` (single isomer, unassigned; isomer 1) [Example 28, 6-Chloro-3-[1-(6-methyl-4-oxo-2-pyrazin-2-yl-chromen-8-yl)ethylamino]pyridine-2-carboxylic acid, Isomer 1], the IC50 in assay [1] (Soy PI lipid substrate) was 1000 to 5000 nM; in assay [2] (Soy PI lipid substrate), less than 500 nM.

Consider `COc1ncc(-n2cc(-c3cc(=O)c4cc(C)cc(C(C)Nc5ccccc5C(=O)O)c4o3)cn2)cn1` (single isomer, unassigned) [Example 105, 2-[1-[2-[1-(2-Methoxypyrimidin-5-yl)pyrazol-4-yl]-6-methyl-4-oxo-chromen-8-yl]ethylamino]benzoic acid, Isomer 2,2,2,2-trifluoroacetic acid], for which the IC50 is greater than 10000 nM in assay [1] (Soy PI lipid substrate) and 500 to 1000 nM in assay [2] (Soy PI lipid substrate).

Consider `COc1cc(-n2cc(-c3cc(=O)c4cc(C)cc(C(C)Nc5ccccc5C(=O)O)c4o3)cn2)ccc1C#N` (single isomer, unassigned) [Example 94, 2-[1-[2-[1-(4-Cyano-3-methoxy-phenyl)pyrazol-4-yl]-6-methyl-4-oxo-chromen-8-yl]ethylamino]benzoic acid, Isomer 2,2,2,2-trifluoroacetic acid], for which the IC50 in assay [1] (Soy PI lipid substrate) is 1000 to 5000 nM; in assay [2] (Soy PI lipid substrate) it was less than 500 nM.

In the case of `Cc1cc(C(C)Nc2ccccc2C(=O)O)c2oc(-n3ccnc3)cc(=O)c2c1` (single isomer, unassigned) [Example 59, 2-[1-(2-Imidazol-1-yl-6-methyl-4-oxo-chromen-8-yl)ethylamino]benzoic acid, Isomer 2,2,2,2-trifluoroacetic acid], the values for the IC50 in assay [1] (PIP2diC8 lipid substrate) and in assay [2] (PIP2diC8 lipid substrate) were 1000 to 5000 nM and less than 500 nM, respectively.

Turning to `Cc1cc(C(C)Nc2ccccc2C(=O)O)c2oc(-c3cn(-c4ccc(C#N)cc4)cn3)cc(=O)c2c1` (single isomer, unassigned) [Example 103, 2-[1-[2-[1-(4-Cyanophenyl)imidazol-4-yl]-6-methyl-4-oxo-chromen-8-yl]ethylamino]benzoic acid, Isomer 2,2,2,2-trifluoroacetic acid], the IC50 is 5000 to 10000 nM in assay [1] (Soy PI lipid substrate) and less than 500 nM in assay [2] (Soy PI lipid substrate).

For `COc1cccc(-c2cc(=O)c3cc(C)cc(C(C)Nc4ccccc4C(=O)O)c3o2)n1` (stereo not drawn) [Example 11, 2-[1-[2-(6-Methoxy-2-pyridyl)-6-methyl-4-oxo-chromen-8-yl]ethylamino]benzoic acid 2,2,2-trifluoroacetic acid], the values for the IC50 in assay [1] (Soy PI lipid substrate) and in assay [2] (Soy PI lipid substrate) were 500 to 1000 nM and less than 500 nM, respectively.
